Consider 1 molecule from article PMC6538953, “Metal Ions Activate the Human Taste Receptor TAS2R7” (Chemical Senses, 2019).

Each structure is given as a SMILES string. Numbering of substitutions follows the chain as printed.

In assay [1] the target is T1, human TAS2R7 E264^7.32Q mutant (Homo sapiens, UniProt Q9NYW3, E264Q).
T1 construct: signal peptide: first 45 amino acid residues of rat somatostatin receptor 3 (N); expressed in transfected cells; host or cells: HEK293 PEAKrapid (ATCC CRL-2828), transient, co-transfected with Gα16-gust44
T1 sequence (Q9NYW3 1-318 E264Q): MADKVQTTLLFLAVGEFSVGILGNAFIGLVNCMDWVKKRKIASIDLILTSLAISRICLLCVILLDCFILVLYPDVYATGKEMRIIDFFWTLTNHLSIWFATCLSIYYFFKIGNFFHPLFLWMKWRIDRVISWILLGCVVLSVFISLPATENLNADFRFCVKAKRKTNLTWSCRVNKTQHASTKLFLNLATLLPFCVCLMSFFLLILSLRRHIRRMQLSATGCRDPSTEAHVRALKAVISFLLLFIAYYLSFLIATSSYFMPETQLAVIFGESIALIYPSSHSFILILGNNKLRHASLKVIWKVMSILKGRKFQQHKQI
The experiment in a line: Calcium mobilization assay, TAS2R7 mutant E264Q. In kind it is cell-based. The conditions noted are these: 20 mM metal ions except 0.16 mM Al2(SO4)3; cromolyn 10 mM; Figure 6C. The source says:
(§1) The coding sequences of human TAS2Rs were amplified from human genomic DNA, then subcloned into pcDNA3.1(+) vector, with the herpes simplex virus glycoprotein D epitope (HSV) at the C-terminal and a signal peptide consisting of the first 45 amino acid residues of the rat somatostatin receptor 3 at the N-terminal, essentially as described previously ([Bufe et al. 2002]). Point mutations in human TAS2R7 (NCBI Reference Sequence: NP_076408.1) were constructed by site-directed mutagenesis. All the constructs were confirmed by Sanger sequencing.
(§2) Human embryonic kidney 293 (PEAKrapid, ATCC # CRL-2828) cells were cultured in Opti-MEM medium with 4% fetal bovine serum. […] After incubation, cells were washed 2 times with HBSS (including 10 mM HEPES), incubated in the dark for another 30 min, and then washed with assay solution once more before running the assay using a FlexStation III reader. Relative fluorescence units (excitation at 494 nm, emission at 516 nm, and auto cutoff at 515 nm) were read every 2 s for 2 min. Calcium mobilization traces were recorded.
(§3) Calcium mobilization traces were raw data obtained from single wells. Changes in fluorescence (ΔF) were calculated as the peak fluorescence minus baseline fluorescence ([Lei et al. 2015]). The calcium mobilization was quantified as the percentage of change (ΔF) relative to baseline (F). […]
In general terms: A change in cytosolic calcium serves as a functional read-out for many receptors and channels.

The target of assay [2] is T2, human TAS2R7 E271^7.39 to glutamine mutant (Homo sapiens, UniProt Q9NYW3, E271Q).
T2 construct: signal peptide: first 45 amino acid residues of rat somatostatin receptor 3 (N); expressed in transfected cells; host or cells: HEK293 PEAKrapid (ATCC CRL-2828), transient, co-transfected with Gα16-gust44
T2 sequence (Q9NYW3 1-318 E271Q): T1 sequence (Q9NYW3 1-318 E264Q) with Q264E, E271Q
The assay can be described thus: Calcium mobilization assay, TAS2R7 mutant E271Q. In kind it is cell-based. Particulars: 20 mM metal ions except 0.16 mM Al2(SO4)3; cromolyn 10 mM; Figure 6C.
Text: as §1, §2, §3

Assay [3] concerns the target T3, human TAS2R7 E271^7.39 to leucine mutant (Homo sapiens, UniProt Q9NYW3, E271L).
T3 construct: signal peptide: first 45 amino acid residues of rat somatostatin receptor 3 (N); expressed in transfected cells; host or cells: HEK293 PEAKrapid (ATCC CRL-2828), transient, co-transfected with Gα16-gust44
T3 sequence (Q9NYW3 1-318 E271L): T1 sequence (Q9NYW3 1-318 E264Q) with Q264E, E271L
The experiment in a line: Calcium mobilization assay, TAS2R7 mutant E271L. Type of assay: cell-based. The conditions noted are these: 20 mM metal ions except 0.16 mM Al2(SO4)3; cromolyn 10 mM; Figure 6C.
Text: as §1, §2, §3

The next assay deals with T4, human TAS2R7 (Homo sapiens, UniProt Q9NYW3).
T4 construct: first 45 residues of rat somatostatin receptor 3 (signal peptide) (N); expressed in transfected cells; host or cells: HEK293 (PEAKrapid, ATCC CRL-2828)
T4 sequence (Q9NYW3 1-318): T1 sequence (Q9NYW3 1-318 E264Q) with Q264E
Details: method as in Meyerhof et al. 2010. The conditions noted are these: ref Meyerhof et al. 2010; cited from earlier work.

Consider `O=C(O)c1cc(=O)c2c(OCC(O)COc3cccc4oc(C(=O)O)cc(=O)c34)cccc2o1` [cromolyn, reference compound], for which the “Response of E264Q mutant receptor” value in assay [1] was “reduced responses”. In addition, in assay [2], the “Response of E271 to glutamine mutant receptor” value was “slightly reduced responses”. For the same molecule, in assay [3], the “Response of E271 to leucine mutant receptor” value is given as “slightly reduced responses”. Besides, the “TAS2R7 reported to respond to bitter compounds” value at human TAS2R7 is recorded as “respond”.
